Source: PubChem BioAssay AID248 (DTP/NCI, 2004)
Toxic doses and inconclusive results are not listed. Rule as the data show it: active = T/C of 150% or more; inactive = T/C below 125%.

System: L1210 leukemia ip in BDF1 mice, survival T/C
Assay: NCI In Vivo Anticancer Drug Screen. Data for tumor model L1210 Leukemia (intraperitoneal) in B6D2F1 (BDF1) mice
Conditions: endpoint: mean survival time, higher = longer survival
How it was run: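 Read-out is survival time, reported as the treated-group measurement over the vehicle-control measurement.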

[1] = dose: 100.0 mg/kg/injection, schedule: Q04DX003 (ip), vehicle: saline with Tween-80
[2] = dose: 200.0 mg/kg/injection, schedule: Q04DX003 (ip), vehicle: saline with Tween-80
[3] = dose: 400.0 mg/kg/injection, schedule: Q04DX003 (ip), vehicle: saline with Tween-80
[4] = dose: 50.0 mg/kg/injection, schedule: Q01DX009 (ip), vehicle: saline with Tween-80
[5] = dose: 100.0 mg/kg/injection, schedule: Q01DX009 (ip), vehicle: saline with Tween-80

Measured: T/C

COC(=O)C(CC(C)C)NC(=O)CN(C)C(=O)OCc1ccccc1 (centres undefined)
inactive: dose: 75.0 mg/kg/injection, schedule: Q04DX003 (sc), vehicle: olive oil, sesame oil, peanut oil 105 % of control | dose: 150.0 mg/kg/injection, schedule: Q04DX003 (sc), vehicle: olive oil, sesame oil, peanut oil 103 % of control | dose: 300.0 mg/kg/injection, schedule: Q04DX003 (sc), vehicle: olive oil, sesame oil, peanut oil 108 % of control

COc1ccc(Nc2nc(N)nc(CNc3ccc(Cl)cc3)n2)cc1
inactive: [1] 98 % of control | [2] 103 % of control | [3] 98 % of control

O=C(CCNC(=O)OCc1ccccc1)NCC(=O)OCc1ccccc1
inactive: [1] 103 % of control | [2] 97 % of control | [3] 92 % of control

NC1CCc2ccccc2C(O)C1c1ccccc1 (centres undefined)
inactive: dose: 25.0 mg/kg/injection, schedule: Q01DX009 (ip), vehicle: saline with Tween-80 97 % of control | dose: 25.0 mg/kg/injection, schedule: Q04DX003 (ip), vehicle: saline with Tween-80 107 % of control | [4] 105 % of control | dose: 50.0 mg/kg/injection, schedule: Q04DX003 (ip), vehicle: saline with Tween-80 104 % of control | [5] 100 % of control | [1] 102 % of control

Cc1ccc2[nH]c3ccccc3c(=O)c2c1
inactive: dose: 75.0 mg/kg/injection, schedule: Q01DX001 (ip), vehicle: saline 93 % of control | dose: 150.0 mg/kg/injection, schedule: Q01DX001 (ip), vehicle: saline 91 % of control | dose: 300.0 mg/kg/injection, schedule: Q01DX001 (ip), vehicle: saline 90 % of control

CCC1N2CCc3cc(OC)c(OC)cc3C2CCC1(O)Cc1ccccn1 (centres undefined)
inactive: dose: 100.0 mg/kg/injection, schedule: Q04DX003 (ip), vehicle: carboxymethylcellulose (CMC) 101 % of control | dose: 200.0 mg/kg/injection, schedule: Q04DX003 (ip), vehicle: carboxymethylcellulose (CMC) 101 % of control

CCOC1=CC(=O)C(C)(CC=C(C)C)C(C)C1 (centres undefined)
inactive: [4] 100 % of control | [5] 92 % of control | dose: 200.0 mg/kg/injection, schedule: Q01DX009 (ip), vehicle: saline with Tween-80 96 % of control

O=[N+]([O-])c1ccc(N/N=C\c2ccc(OCc3ccccc3)cc2)c([N+](=O)[O-])c1
inactive: dose: 100.0 mg/kg/injection, schedule: Q01DX001 (ip), vehicle: other 86 % of control
